Laboratory results as given in paper PMC11350787, “Antimicrobial Properties and Cytotoxicity of LL-37-Derived Synthetic Peptides to Treat Orthopedic Infections” (Antibiotics, 2024).
Values after ≈ are worked out from the molar mass of the structure shown.

Experiments:
[1] = test system: S. epidermidis GOI1153754-03-14 biofilm; assay: Biofilm removal activity (CLSM, LIVE/DEAD); format: cell-based; conditions: titanium disks; 18 h treatment; FK-16 75 µg/mL, GF-17 18.75 µg/mL, vancomycin 0.5%
Procedure: (§1) Rough titanium disks (Adler Ortho, Cormano, Milan, Italy) were autoclaved at 121°C for 15 min and placed into sterile 6-well plates. S. epidermidis ATCC 35984, S. epidermidis GOI1153754-03-14, S. aureus ATCC 49,230 and S. aureus Sau89 were grown overnight in BHI broth at 37 °C. The culture was diluted up to 1.5 × 10^6 in BHI broth and 6 mL of each culture was inoculated in the disk containing wells. Two disks were inoculated with sterile BHI as sterility control. All the plates were incubated at 37 °C for 72 h. After incubation, the disks were gently washed with sterile saline to remove unattached cells. Each disk was treated with either vancomycin at 0.5% (Pharmatex, Milan, Italy), GF-17 (18.75 µg/mL) or FK-16 (75 µg/mL) for 18 h. Two disks for each bacterial inoculum were untreated as control. Subsequently, disks were gently washed with sterile saline solution and stained with Filmtracer^TM LIVE/DEAD^TM Biofilm Viability Kit (Thermo Fisher Diagnostics, Monza, Italy), according to the manufacturer’s instructions, washed again with sterile saline and observed with an upright TCS SP8 (Leica Microsystems CMS GmbH, Mannheim, Germany) using a 20X dry objective (HC PL FLUOTAR 20X/0.50 DRY). The images were acquired with Las X (Leica Microsystems CMS GmbH, Mannheim, Germany) and analyzed with Fiji software (Fiji, ImageJ version 1.53t, Wayne Rasband National Institutes of Health). For each channel, the biofilm area was measured after setting the threshold at 14 for the red channel and 20 for the green channel. The biofilm data were expressed as the percentage of red signal (dead cells) relative to the green channel (live cells). Finally, the data were normalized against the control, which was set to 1.

[2] = test system: S. aureus ATCC 49230 biofilm; assay: Biofilm removal activity (CLSM, LIVE/DEAD); format: cell-based; conditions: 72-h-old biofilm; 18 h; vancomycin 0.5% vs FK-16 75 µg/mL; p < 0.01
Procedure: as §1

[3] = test system: S. epidermidis ATCC 35984 biofilm; assay: Biofilm removal activity (CLSM, LIVE/DEAD); format: cell-based; conditions: 72-h-old biofilm; 18 h; vancomycin 0.5%; p < 0.01 vs FK-16
Procedure: as §1

[4] = test system: S. aureus Sau89 biofilm; assay: Biofilm removal activity (CLSM, LIVE/DEAD); format: cell-based; conditions: 72-h-old biofilm; 18 h; vancomycin 0.5% vs FK-16 75 µg/mL; p < 0.05
Procedure: as §1

[5] = test system: S. epidermidis GOI1153754-03-14 (CI); assay: microbe, parasite or virus in culture
Description: (§2) A total of 18 bacterial strains relevant to orthopedic infections were used for microbiological tests, including 8 ATCC (American Type Culture Collection, ATCC, Manassas, VA, USA) and 10 clinical isolates (CI) from the Laboratory of Clinical Chemistry and Microbiology, IRCCS Ospedale Galeazzi–Sant’Ambrogio of Milan (Italy) strain collection. The ATCC strains were used for the first screening (MIC/MBC) of all the AMPs produced, while the clinical isolates were used for further MIC/MBC assays on selected AMPs. Among CI, S. epidermidis GOI1153754-03-14 has been already characterized and used in previous studies. All the strains were stocked at −80°C and working stocks were stored at −20 °C. At the occurrence, the bacteria were resuscitated in Brain Hearth Infusion (BHI, Millipore, Milan, Italy) broth at 37 °C for 18 h from the working stocks.
(§3) To determine the minimum inhibitory concentration (MIC) and the minimum bactericidal concentration (MBC), ISO20776-1 and Clinical and Laboratory Standards Institute guidelines were followed. A commercial synthetic LL-37 (Aurogene, Rome, Italy) was used as the control in the MIC and MBC assays. A stock solution of each AMP was prepared at 600 µg/mL to achieve a final concentration of 300 µg/mL. […] The MIC was determined according to the aforementioned standard guidelines. The MBC was determined by plating 2 µL of culture from each well of the MIC plates on a Tryptic Soy Agar (TSA, Millipore, Milan, Italy) plate and incubated for 24 h at 37 °C. The concentration at which there was no growth was recorded as MBC. Each experiment was carried out in triplicate. Representative MIC and MBC values for vancomycin and gentamicin were assessed to offer a benchmark comparison for the AMPs. Quality control was conducted with Staphylococcus aureus ATCC 29,213 and vancomycin according to EUCAST guidelines.

[6] = test system: E. coli ATCC 25922; assay: microbe, parasite or virus in culture
Description: as §2, §3

[7] = test system: S. aureus ATCC 43300; assay: microbe, parasite or virus in culture
Description: as §2, §3

[8] = test system: P. aeruginosa ATCC 27853; assay: microbe, parasite or virus in culture
Description: as §2, §3

[9] = test system: S. aureus ATCC 25923; assay: microbe, parasite or virus in culture
Description: as §2, §3

For `CN[C@H](CC(C)C)C(=O)N[C@H]1C(=O)N[C@@H](CC(N)=O)C(=O)N[C@H]2C(=O)N[C@H]3C(=O)N[C@H](C(=O)N[C@H](C(=O)O)c4cc(O)cc(O)c4-c4cc3ccc4O)[C@H](O)c3ccc(c(Cl)c3)Oc3cc2cc(c3O[C@@H]2O[C@H](CO)[C@@H](O)[C@H](O)[C@H]2O[C@H]2C[C@](C)(N)[C@H](O)[C@H](C)O2)Oc2ccc(cc2Cl)[C@H]1O` [Van, vancomycin], the “CLSM observation of treated 72-h-old biofilm (live green / dead red)” value [1] was “less disruptive effect”, the “Dead bacteria in biofilm (quantitative analysis of fluorescent signals, relative mortality)” value [2] was “more dead cells compared to FK-16 treatment” and the “Dead bacteria in biofilm (quantitative analysis of fluorescent signals, relative mortality)” value [3] was “higher than the uninoculated control”. For the same compound, the “Dead bacteria in biofilm (quantitative analysis of fluorescent signals, relative mortality)” value [4] was “more dead cells compared to FK-16 treatment”, the “Susceptibility category by MIC (EUCAST clinical breakpoints tables, v. 14)” value ([5]; S. epidermidis GOI1153754-03-14) was “S” and the MBC ([5]; Staphylococcus epidermidis, read-out: Minimum Bactericidal Concentration (MBC)) was 2.5 µg/mL (≈ 1.73 µM). The MIC ([5]; Staphylococcus epidermidis, read-out: Minimum Inhibitory Concentration (MIC)) was 1.25 µg/mL (≈ 0.863 µM), the “Susceptibility category by MIC (EUCAST clinical breakpoints tables, v. 14)” value ([6]; E. coli 25922) was “R” and the MBC ([6]; Escherichia coli, ATCC25922, 24 h, read-out: Minimum Bactericidal Concentration (MBC)) was greater than 40 µg/mL. For the same compound, the MIC ([6]; Escherichia coli, ATCC25922, read-out: Minimum Inhibitory Concentration (MIC)) was greater than 40 µg/mL, the “Susceptibility category by MIC (EUCAST clinical breakpoints tables, version 14)” value ([7]; S. aureus 43,300 as printed in text) was “S” and the MBC ([7]; Staphylococcus aureus, ATCC43300, 24 h, read-out: Minimum Bactericidal Concentration (MBC)) was 0.6 µg/mL (≈ 0.414 µM). The MIC ([7]; Staphylococcus aureus, ATCC43300, read-out: Minimum Inhibitory Concentration (MIC)) was 0.6 µg/mL (≈ 0.414 µM), the “Susceptibility category by MIC (EUCAST clinical breakpoints tables, v. 14)” value ([8]; P. aeruginosa 27853) was “R” and the MBC ([8]; Pseudomonas aeruginosa, ATCC27853, 24 h, read-out: Minimum Bactericidal Concentration (MBC)) was greater than 40 µg/mL. For the same compound, the MIC ([8]; Pseudomonas aeruginosa, ATCC27853, read-out: Minimum Inhibitory Concentration (MIC)) was greater than 40 µg/mL, the “Susceptibility category by MIC (EUCAST clinical breakpoints tables, v. 14)” value ([9]; S. aureus 25923) was “S” and the MBC ([9]; Staphylococcus aureus, ATCC25923, 24 h, read-out: Minimum Bactericidal Concentration (MBC)) was 0.6 µg/mL (≈ 0.414 µM). For the same compound, the MIC ([9]; Staphylococcus aureus, ATCC25923, read-out: Minimum Inhibitory Concentration (MIC)) was 0.6 µg/mL (≈ 0.414 µM).
